# *1 amine or outer side, *2 acyl side, *3 side chain or, on linkers, in order; H or OH if unused. Where a SMILES comes first, the peptide text is derived from it. Where no end group is shown, it is not given here. [ ]: non-standard residue; d: D form. The star is where a group is joined. ξ: configuration not given here. ξGly(4-Pip(1-amidino)) = N=C(N)N1CCC(C(N)C(=O)O)CC1; Ala(indol-4-yl) = N[C@@H](Cc1cccc2[nH]ccc12)C(=O)O; Phe(3,4-Cl2) = N[C@@H](Cc1ccc(Cl)c(Cl)c1)C(=O)O; X4 = O=C([C@H](Cc1cccc2[nH]ncc12)N[*:1])[*:2]; Trp(1-Me) = Cn1cc(C[C@H](N)C(=O)O)c2ccccc21; X1 = O=C([C@H](Cc1ccc2ccccc2n1)N[*:1])[*:2]; Ala(4-thiazolyl) = N[C@@H](Cc1cscn1)C(=O)O; Oic = O=C(O)[C@@H]1C[C@@H]2CCCC[C@@H]2N1; Phe(4-F) = N[C@@H](Cc1ccc(F)cc1)C(=O)O; Dab(CONH2) = NC(=O)NCC[C@H](N)C(=O)O; Bta = N[C@@H](Cc1csc2ccccc12)C(=O)O; Igl = N[C@H](C(=O)O)C1Cc2ccccc2C1; hCit = NC(=O)NCCCC[C@H](N)C(=O)O; Tic = O=C(O)[C@@H]1Cc2ccccc2CN1; Cit = NC(=O)NCCC[C@H](N)C(=O)O; Agb = N=C(N)NCC[C@H](N)C(=O)O; Chg = N[C@H](C(=O)O)C1CCCCC1; NHPhenethyl = c1ccc(CCN*)cc1; Tle = CC(C)(C)[C@H](N)C(=O)O; Morpholide = C1CN(*)CCO1; Nva = CCC[C@H](N)C(=O)O; βAla = NCCC(=O)O; Sar = CNCC(=O)O
# Target: T1, HLA-DRB1*15:01 (Homo sapiens, UniProt P01903+P01911)
# T1 construct: endogenous in cells; host or cells: EBV homozygous cell lines (human)
# Assay: HLA II binding assay (competitive, biotinylated reference peptide)
# Details: N-methyl amide vs primary amide
row,Molecule,loss in binding affinity relative to PV-267
1,CNC(=O)[C@H](Cc1ccccc1)NC(=O)[C@@H]1Cc2ccccc2CN1C(=O)[C@H](CCCNC(=N)N)NC(=O)[C@@H](NC(=O)[C@@H](NC(C)=O)C(C)C)C1CCCCC1 [PV-625] (Ac-V[Chg]R[Tic]F-NHMe),8 fold

# Same assay, conditions: Table 2, DRB1*15:01 binding; unit inferred, nM; read-out: Avg IC50
row,Molecule,IC50
1,CC(=O)N[C@H](C(=O)N[C@@H](CCCNC(=N)N)C(=O)N1Cc2ccccc2C[C@H]1C(=O)N[C@@H](Cc1cccc2[nH]ccc12)C(N)=O)C1CCCCC1 [PV-476] (Ac-[Chg]R[Tic][Ala(indol-4-yl)]-NH2),30.1 nM
2,CC(=O)N[C@H](C(=O)N[C@H](C(=O)N[C@@H](CCNC(N)=O)C(=O)N1Cc2ccccc2C[C@H]1C(=O)N[C@@H](Cc1ccccc1)C(N)=O)C1CCCCC1)C(C)C [PV-642] (Ac-V[Chg][Dab(CONH2)][Tic]F-NH2),4 nM
3,CC(C)[C@H](NC(=O)CCN)C(=O)N[C@H](C(=O)N[C@@H](Cc1ccccc1)C(=O)N[C@@H](Cc1ccccc1)C(=O)N[C@@H](Cc1ccccc1)C(N)=O)C1CCCCC1 [PV-782] (H-[βAla]V[Chg]FFF-NH2),150 nM
4,CC(=O)N[C@H](C(=O)N[C@H](C(=O)N[C@@H](CCCNC(=N)N)C(=O)N1Cc2ccccc2C[C@H]1C(=O)N[C@@H](Cc1ccccc1)C(N)=O)C1CCCCC1)[C@@H](C)O [PV-526] (Ac-T[Chg]R[Tic]F-NH2),29 nM
5,CC(=O)N[C@H](C(=O)N[C@H](C(=O)N[C@@H](Cc1c[nH]cn1)C(=O)N1Cc2ccccc2C[C@H]1C(=O)N[C@@H](Cc1ccccc1)C(N)=O)C1CCCCC1)C(C)C [PV-580] (Ac-V[Chg]H[Tic]F-NH2),28 nM
6,CC(C)[C@H](NC(=O)CN)C(=O)N[C@H](C(=O)N[C@@H](CCCNC(=N)N)C(=O)N1Cc2ccccc2C[C@H]1C(=O)N[C@@H](Cc1ccccc1)C(N)=O)C1CCCCC1 [PV-633] (H-GV[Chg]R[Tic]F-NH2),1 nM
7,CC(=O)N[C@H](C(=O)N[C@H](C(=O)N[C@@H](CCNC(=N)N)C(=O)N1Cc2ccccc2C[C@H]1C(=O)N[C@@H](Cc1ccccc1)C(N)=O)C1CCCCC1)C(C)C [PV-562] (Ac-V[Chg][Agb][Tic]F-NH2),5.3 nM
8,CC(=O)N[C@H](C(=O)N[C@H](C(=O)N[C@@H](CCCNC(=N)N)C(=O)N1Cc2ccccc2C[C@H]1C(=O)N[C@@H](Cc1ccccc1)C(N)=O)C1Cc2ccccc2C1)C(C)C [PV-594] (Ac-V[Igl]R[Tic]F-NH2),14 nM
9,CC(C)[C@H](NC(=O)CCN)C(=O)N[C@H](C(=O)N[C@@H](CCCNC(=N)N)C(=O)N1Cc2ccccc2C[C@H]1C(=O)N[C@@H](Cc1ccccc1)C(N)=O)C1CCCCC1 [PV-638] (H-[βAla]V[Chg]R[Tic]F-NH2),2 nM
10,CC(=O)N[C@H](C(=O)N[C@H](C(=O)N[C@@H](CCCCNC(N)=O)C(=O)N1Cc2ccccc2C[C@H]1C(=O)N[C@@H](Cc1ccccc1)C(N)=O)C1CCCCC1)C(C)C [PV-640] (Ac-V[Chg][hCit][Tic]F-NH2),7 nM
11,CC(=O)N[C@H](C(=O)N[C@H](C(=O)N[C@@H](CCCNC(=N)N)C(=O)N1Cc2ccccc2C[C@H]1C(=O)N[C@@H](Cc1csc2ccccc12)C(N)=O)C1CCCCC1)C(C)C [PV-478] (Ac-V[Chg]R[Tic][Bta]-NH2),2.1 nM
12,"Ac-VVRFF-NH2 [PV-73, reference compound]",2370 nM
13,CC(=O)N[C@H](C(=O)N[C@H](C(=O)N[C@@H](CCCNC(=N)N)C(=O)N1Cc2ccccc2C[C@H]1C(=O)N[C@@H](Cc1ccc(F)cc1)C(N)=O)C1CCCCC1)C(C)C [PV-574] (Ac-V[Chg]R[Tic][Phe(4-F)]-NH2),2.3 nM
14,CNCC(=O)N[C@H](C(=O)N[C@H](C(=O)N[C@@H](CCCNC(=N)N)C(=O)N1Cc2ccccc2C[C@H]1C(=O)N[C@@H](Cc1ccccc1)C(N)=O)C1CCCCC1)C(C)C [PV-636] (H-[Sar]V[Chg]R[Tic]F-NH2),3 nM
15,CCC[C@H](NC(C)=O)C(=O)N[C@H](C(=O)N[C@@H](CCCNC(=N)N)C(=O)N1Cc2ccccc2C[C@H]1C(=O)N[C@@H](Cc1ccccc1)C(N)=O)C1CCCCC1 [PV-591] (Ac-[Nva][Chg]R[Tic]F-NH2),4.1 nM
16,"CC(=O)N[C@H](C(=O)N[C@H](C(=O)N[C@@H](CCCNC(=N)N)C(=O)N1Cc2ccccc2C[C@H]1C(=O)N[C@@H](Cc1ccc2ccccc2n1)C(N)=O)C1CCCCC1)C(C)C [PV-617, reference compound] (Ac-V[Chg]R[Tic][X1]-NH2)",3450 nM
17,CC(C)[C@H](NC(=O)CCN)C(=O)N[C@H](C(=O)N[C@@H](CCCNC(N)=O)C(=O)N1Cc2ccccc2C[C@H]1C(=O)N[C@@H](Cc1ccccc1)C(N)=O)C1CCCCC1 [PV-664] (H-[βAla]V[Chg][Cit][Tic]F-NH2),2 nM
18,CC(=O)N[C@H](C(=O)N[C@@H](CCCNC(=N)N)C(=O)N1Cc2ccccc2C[C@H]1C(=O)N[C@@H](Cc1csc2ccccc12)C(N)=O)C1CCCCC1 [PV-477] (Ac-[Chg]R[Tic][Bta]-NH2),82 nM

row,Molecule,IC50
1,CC(=O)N[C@H](C(=O)N[C@H](C(=O)N[C@@H](CCCNC(=N)N)C(=O)N1Cc2ccccc2C[C@H]1C(=O)N[C@@H](Cc1cccc2[nH]ncc12)C(N)=O)C1CCCCC1)C(C)C [PV-676] (Ac-V[Chg]R[Tic][X4]-NH2),3 nM
2,CC(=O)N[C@H](C(=O)N[C@H](C(=O)N[C@@H](CCCNC(=N)N)C(=O)N1Cc2ccccc2C[C@H]1C(=O)N[C@@H](Cc1c[nH]c2ccccc12)C(N)=O)C1CCCCC1)C(C)C [PV-579] (Ac-V[Chg]R[Tic]W-NH2),1.3 nM
3,CNC(=O)[C@H](Cc1ccccc1)NC(=O)[C@@H]1Cc2ccccc2CN1C(=O)[C@H](CCCNC(=N)N)NC(=O)[C@@H](NC(=O)[C@@H](NC(C)=O)C(C)C)C1Cc2ccccc2C1 [PV-629] (Ac-V[Igl]R[Tic]F-NHMe),17 nM
4,CC(=O)N[C@H](C(=O)N[C@H](C(=O)N[C@@H](CCCNC(=N)N)C(=O)N1Cc2ccccc2C[C@H]1C(=O)N[C@@H](Cc1ccccc1)C(=O)O)C1Cc2ccccc2C1)C(C)C [PV-624] (Ac-V[Igl]R[Tic]F-OH),161 nM
5,CC(C)[C@H](NC(=O)CCN)C(=O)N[C@H](C(=O)N[C@@H](Cc1cscn1)C(=O)N1Cc2ccccc2C[C@H]1C(=O)N[C@@H](Cc1ccccc1)C(N)=O)C1CCCCC1 [PV-833] (H-[βAla]V[Chg][Ala(4-thiazolyl)][Tic]F-NH2),17 nM
6,CC(=O)N[C@H](C(=O)N[C@H](C(=O)N[C@@H](C)C(=O)N1Cc2ccccc2C[C@H]1C(=O)N[C@@H](Cc1ccccc1)C(N)=O)C1CCCCC1)C(C)C [PV-560] (Ac-V[Chg]A[Tic]F-NH2),43 nM
7,CC(=O)N[C@H](C(=O)N[C@H](C(=O)NC(C(=O)N1Cc2ccccc2C[C@H]1C(=O)N[C@@H](Cc1ccccc1)C(N)=O)C1CCN(C(=N)N)CC1)C1CCCCC1)C(C)C (stereo partly drawn) [PV-810] (Ac-V[Chg][ξGly(4-Pip(1-amidino))][Tic]F-NH2),6 nM
8,CNCC(=O)N[C@H](C(=O)N[C@H](C(=O)N[C@@H](CCCNC(N)=O)C(=O)N1Cc2ccccc2C[C@H]1C(=O)N[C@@H](Cc1ccccc1)C(N)=O)C1CCCCC1)C(C)C [PV-662] (H-[Sar]V[Chg][Cit][Tic]F-NH2),4 nM
9,"CC(=O)N[C@H](C(=O)N[C@H](C(=O)N[C@@H](CCCNC(=N)N)C(=O)N1Cc2ccccc2C[C@H]1C(=O)N[C@@H](Cc1ccc(Cl)c(Cl)c1)C(N)=O)C1CCCCC1)C(C)C [PV-593] (Ac-V[Chg]R[Tic][Phe(3,4-Cl2)]-NH2)",4.1 nM
10,"CC(=O)N[C@H](C(=O)N[C@H](C(=O)N[C@@H](CCCNC(=N)N)C(=O)N1[C@H](C(=O)N[C@@H](Cc2ccccc2)C(N)=O)C[C@@H]2CCCC[C@@H]21)C1CCCCC1)C(C)C [PV-589, reference compound] (Ac-V[Chg]R[Oic]F-NH2)",474 nM
11,"CC(=O)N[C@H](C(=O)N[C@@H](CCCNC(=N)N)C(=O)N[C@@H](Cc1ccccc1)C(=O)N[C@@H](Cc1ccccc1)C(N)=O)C(C)C [PV-119, reference compound] (Ac-VRFF-NH2)",5000 nM
12,CC(=O)N[C@H](C(=O)N[C@H](C(=O)N[C@@H](CCCNC(=N)N)C(=O)N1Cc2ccccc2C[C@H]1C(=O)N[C@@H](Cc1cccc2[nH]ccc12)C(N)=O)C1CCCCC1)C(C)C [PV-493] (Ac-V[Chg]R[Tic][Ala(indol-4-yl)]-NH2),1.5 nM
13,CC(C)[C@H](NC(=O)CN)C(=O)N[C@H](C(=O)N[C@@H](CCCNC(N)=O)C(=O)N1Cc2ccccc2C[C@H]1C(=O)N[C@@H](Cc1ccccc1)C(N)=O)C1CCCCC1 [PV-661] (H-GV[Chg][Cit][Tic]F-NH2),5 nM
14,CC(=O)N[C@H](C(=O)N[C@@H](CCCNC(=N)N)C(=O)N1Cc2ccccc2C[C@H]1C(=O)N[C@@H](Cc1cn(C)c2ccccc12)C(N)=O)C1CCCCC1 [PV-508] (Ac-[Chg]R[Tic][Trp(1-Me)]-NH2),213 nM
15,CC(=O)N[C@H](C(=O)N[C@H](C(=O)N[C@@H](CCCNC(=N)N)C(=O)N1Cc2ccccc2C[C@H]1C(=O)N[C@@H](Cc1ccccc1)C(N)=O)C1CCCCC1)C(C)(C)C [PV-590] (Ac-[Tle][Chg]R[Tic]F-NH2),1.3 nM
16,"CC(=O)N[C@H](C(=O)N[C@H](C(=O)N[C@@H](CCCNC(=N)N)C(=O)N1Cc2ccccc2C[C@H]1C(=O)NCCc1ccccc1)C1CCCCC1)C(C)C [PV-708, reference compound] (Ac-V[Chg]R[Tic]-NHPhenethyl)",464 nM
17,CC(=O)N[C@H](C(=O)N[C@@H](CCCNC(=N)N)C(=O)N1Cc2ccccc2C[C@H]1C(=O)N[C@@H](Cc1c[nH]c2ccccc12)C(N)=O)C1CCCCC1 [PV-507] (Ac-[Chg]R[Tic]W-NH2),48 nM

# Same assay, conditions: read-out: binding IC50
row,Molecule,IC50
1,CC(=O)N[C@H](C(=O)N[C@H](C(=O)N[C@@H](CCCNC(=N)N)C(=O)N1Cc2ccccc2C[C@H]1C(=O)N[C@@H](Cc1ccccc1)C(=O)N1CCOCC1)C1CCCCC1)C(C)C [PV-630] (Ac-V[Chg]R[Tic]F-Morpholide),33 nM
2,CNC(=O)[C@H](Cc1ccccc1)NC(=O)[C@@H]1Cc2ccccc2CN1C(=O)[C@H](CCCNC(=N)N)NC(=O)[C@@H](NC(=O)[C@@H](NC(C)=O)C(C)C)C1CCCCC1 [PV-625] (Ac-V[Chg]R[Tic]F-NHMe),16 nM

# Same assay, conditions: reference peptide, DRB1*1501; read-out: IC50
row,Molecule,IC50
1,"EAEQLRRAYLDGTGVE [A3 152-166, reference compound]",14 nM

# Source: US20240158439A1, “INHIBITORS OF ANTIGEN PRESENTATION BY MHC CLASS II HLA-DRB1*15:01 MOLECULES WITH ENHANCED METABOLIC STABILITY” (Provid Pharmaceuticals Inc., priority 2021, published 2024)
